Data on three compounds can be found in BindingDB's records for PubMed 2498315 (University of California San Diego, 1989).

Molecules are shown by their SMILES.

Sequence of Phospholipase A2 (P04054 whole entry): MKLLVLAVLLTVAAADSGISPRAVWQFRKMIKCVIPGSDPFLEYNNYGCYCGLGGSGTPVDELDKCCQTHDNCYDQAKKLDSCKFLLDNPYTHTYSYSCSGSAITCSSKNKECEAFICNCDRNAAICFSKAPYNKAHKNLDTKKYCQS

This test concerns the target Phospholipase A2 (Homo sapiens, UniProt P04054). Kind of test: Phospholipase A2 Vesicle Assay. The note with it: pH 9; 40 °C. From the text: Inhibition assay using phospholipase A2.
As to `O=C(CBr)c1ccc(Br)cc1` [2-bromo-1-(4-bromophenyl)ethan-1-one], half-maximal inhibition (IC50) required 550 µM. The result for `CCCCCCCCCCC/C=C/C(C)(C)/C=C/CCCC(=O)O` [7,7-dimethyl-5,8-eicosadienoic acid] reads 16 µM. The result for `CC(C)=CCC/C(C)=C/C/C(C=O)=C\CCC1=CC(=O)OC1O` (stereo not drawn) [Manoalogue] reads 26 µM.
